We go through 31 substances from patent US9364567B2, “Fragments of p97 and uses thereof” (biOasis Technologies, Inc., priority 2013, dated 2016).

In the series the test system is in vitro model of the blood brain barrier (brain capillary endothelial cells co-cultured with glial cells). Nature of the series: In vitro BBB model: passage of p97 tryptic digest peptides, LC-MS/MS peak areas in luminal and abluminal compartments. It is filed as in vitro ADME, rat. Here is the method: Experiments were performed to evaluate the passage of mixtures of p97 peptide fragments across the blood-brain barrier (BBB) using a relevant and predictive BBB in vitro model (see Cecchelli et al., Adv. Drug Deliv. Rev. 36:165-178, 1999). The model utilizes brain capillary endothelial cells co-cultured with glial cells, to closely mimic the in vivo BBB (see Lundquist et al., Pharm. Res. 16:976-981, 2002).
To provide an in vitro system for studying brain capillary functions, a process of co-culture that closely mimics the in vivo BBB was established by culturing brain capillary endothelial cells on one side of a filter and supportive glial cells on the other side. Specifically, endothelial cells were cultured in the upper compartment on the filter and glial cells in the lower compartment on the plastic of a six-wells plate (see FIGS. 7 and 8). Under these conditions, endothelial cells retain the appropriate endothelial markers (e.g., factor VIII—related antigen, non-thrombogenic surface, production of prostacyclin, angiotensin-converting enzyme activity), and also retain the relevant characteristics of the BBB (e.g., presence of tight junctions, paucity of pinocytotic vesicles, monoamine oxidase activity, γ-glutamyltranspeptidase activity, P-glycoprotein activity, specific receptors for low density lipoproteins, and transferrin).
After removing the meninges, the brain tissue was forced gently through a nylon sieve. DMEM (Dulbecco's modified Eagle medium) supplemented with 10% (v/v) fetal calf serum (FCS, same as Fetal Bovine Serum: FBS), 2 mM glutamine, and 50 μg·ml^−1 of gentamycin was used for the dissociation of cerebral tissue and development of glial cells. […]
The glial cells were plated at a concentration of about 1.25×10^5 cells/ml in plastic six-well plates and incubated at 37° C. with 5% CO2. The medium was changed twice a week. […] Then, sub-clones of endothelial cells frozen at passage 3 were cultured on a 60-mm-diameter gelatin-coated Petri dish. Confluent endothelial cells were trypsinized and plated on the upper side of the filters at a density of 4×10^5 cells/ml. The medium used for the co-culture was DMEM supplemented with 10% (v/v) calf serum (CS) and 10% (v/v) horse serum (HS), 2 mM glutamine, and 50 μg/ml of gentamycin, and 1 ng/ml of basic fibroblast growth factor was added every other day.
On the day of the experiments, Ringer-HEPES (NaCl, 150 mM; KCl, 5.2 mM; CaCl2, 2.2 mM; MgCl2 6H20, 0.2 mM; NaHCO3, 6 mM; HEPES, 5 mM; glucose, 2.8 mM) was added to the lower compartment (abluminal side) of a six-well plate (3 mL per well). Filters with or without endothelial cells were washed with the Ringer-HEPES solution for 10 minutes at 37° C. to minimize traces of serum, and were then transferred to each well of the six-well plate. A volume of 1 mL Ringer-HEPES solution containing the peptide fragments in combination with Lucifer Yellow (20 μM) was placed in the upper compartment (luminal side) of the well.
Experiments were performed in triplicate with filters containing a confluent monolayer of endothelial cells (for BBB integrity testing or evaluation of peptide fragment passage), or in triplicate with empty filters coated only with collagen (filter test). Incubations were performed on a rocking platform for 120 minutes at 37° C.

The mark [1] stands for this setting: tryptic peptides, abluminal compartment, 120 minutes, 3 micron pore size, LC-MS/MS peak area.
Where [2] appears, read: tryptic peptides, abluminal compartment, 120 minutes, 4 micron pore size, LC-MS/MS peak area.
Where [3] appears, read: tryptic peptides, luminal compartment, 120 minutes, 3 micron pore size, LC-MS/MS peak area.
The mark [4] stands for this setting: tryptic peptides, luminal compartment, 120 minutes, 4 micron pore size, LC-MS/MS peak area.
Setting [5] is: tryptic peptides, abluminal/luminal peak area ratio at 120 minutes, 0.4 um insert.
[6] abbreviates: tryptic peptides, abluminal/luminal peak area ratio at 120 minutes, 3.0 um insert.

Where two headings read alike, the source gives them in different places.

Regarding “TVGWNVPVGYLVESGR [tryptic peptide fragment of human p97]”, the “Ablum 120: Area” value under setting [1] was 0.00E+00 and the “Ablum 120: Area” value under setting [2] was 1.38E+07. The “Lum 120: Area” value under setting [3] came to 9.38E+07 and the “Lum 120: Area” value under setting [4] is given as 1.01E+08.
With “LKPEIQCVSAK (listed as Homo sapiens) [tryptic peptide fragment of human p97]”, the “Abl 120/Lum120 peak area ratio, 0.4 um insert” value was determined as 4.81 and the “Abl 120/Lum120 peak area ratio, 3.0 um insert” value was 4.37.
In the case of “WCVLSTPEIQK (listed as Homo sapiens) [tryptic peptide fragment of human p97]”, the “Lum 120: Area” value is 0.00E+00.
For “DSSHAFTLDELR (listed as Homo sapiens) [tryptic peptide fragment of human p97]”, the “Abl 120/Lum120 peak area ratio, 0.4 um insert” value was 0.98.
As for “ADTDGGLIFRLLNEGQR [tryptic peptide fragment of human p97]”, the “Ablum 120: Area” value amounted to 0.00E+00 under setting [1] and 5.53E+06 under setting [2]. Further, the “Lum 120: Area” value is, setting by setting: under setting [3], 3.69E+07; under setting [4], 3.36E+07.
Consider “WCATSDPEQHK (listed as Homo sapiens) [tryptic peptide fragment of human p97]”, for which the “Abl 120/Lum120 peak area ratio, 0.4 um insert” value is given as 8.92 and the “Abl 120/Lum120 peak area ratio, 3.0 um insert” value is on record as 7.41.
As to “GDSSGEGVCDKSPLER [tryptic peptide fragment of human p97]”, the “Ablum 120: Area” value reads like this: under setting [1], 1.93E+09; under setting [2], 2.34E+09. Besides, under setting [5], the “Abl 120/Lum120 peak area ratio, 0.4 um insert” value stood at 4.93. Further, under setting [6], the “Abl 120/Lum120 peak area ratio, 3.0 um insert” value came to 3.80. The “Lum 120: Area” value was determined as 5.08E+08 under setting [3] and 4.75E+08 under setting [4].
“AVSDYFGGSCVPGAGETSYSESLCR [tryptic peptide fragment of human p97]”: the “Ablum 120: Area” value under setting [1] came to 5.49E+08 and the “Ablum 120: Area” value under setting [2] came to 7.98E+08. Besides, the “Lum 120: Area” value by setting is: under setting [3], 5.51E+09; under setting [4], 5.03E+09.
As for “SSHVTIDTLKGVK (listed as Homo sapiens) [tryptic peptide fragment of human p97]”, the “Abl 120/Lum120 peak area ratio, 0.4 um insert” value was 2.42 and the “Abl 120/Lum120 peak area ratio, 3.0 um insert” value is on record as 2.38.
On to “ADVTEWR (listed as Homo sapiens) [tryptic peptide fragment of human p97]”, for which the “Abl 120/Lum120 peak area ratio, 0.4 um insert” value turned out to be 12.76 and the “Abl 120/Lum120 peak area ratio, 3.0 um insert” value is reported as 11.26.
With “ADVTEWRQCHLAR (listed as Homo sapiens) [tryptic peptide fragment of human p97]”, the “Ablum 120: Area” value stood at 4.26E+06 and the “Lum 120: Area” value is recorded as 0.00E+00.
As for “SEDYELLCPNGAR (listed as Homo sapiens) [tryptic peptide fragment of human p97]”, the “Abl 120/Lum120 peak area ratio, 0.4 um insert” value is on record as 13.05 and the “Abl 120/Lum120 peak area ratio, 3.0 um insert” value was found to be 8.38.
On to “LLNEGQR (listed as Homo sapiens) [tryptic peptide fragment of human p97]”, for which the “Ablum 120: Area” value was 0.00E+00.
For “DSSHAFTLDELRGK [tryptic peptide fragment of human p97]”, the “Ablum 120: Area” value runs as follows: under setting [1], 1.99E+07; under setting [2], 2.37E+07. Besides, the “Lum 120: Area” value is, setting by setting: under setting [3], 0.00E+00; under setting [4], 0.00E+00.
For “NYPSSLCALCVGDEQGR [tryptic peptide fragment of human p97]”, the “Ablum 120: Area” value runs as follows: under setting [1], 7.34E+07; under setting [2], 1.09E+08. The “Lum 120: Area” value runs as follows: under setting [3], 6.15E+08; under setting [4], 5.52E+08.
Consider “CGDMAVAFR (listed as Homo sapiens) [tryptic peptide fragment of human p97]”, for which the “Abl 120/Lum120 peak area ratio, 0.4 um insert” value amounted to 2.26 and the “Abl 120/Lum120 peak area ratio, 3.0 um insert” value came out at 2.06.
The matching figures for “ADTDGGLIFR (listed as Homo sapiens) [tryptic peptide fragment of human p97]”: 1.95 and 1.44.
“CLVENAGDVAFVR (listed as Homo sapiens) [tryptic peptide fragment of human p97]”: the “Ablum 120: Area” value turned out to be 1.30E+08 and the “Lum 120: Area” value amounted to 5.49E+08.
Regarding “LCRGDSSGEGVCDK [tryptic peptide fragment of human p97]”, the “Ablum 120: Area” value runs as follows: under setting [1], 2.64E+05; under setting [2], 5.97E+05. Under setting [5], the “Abl 120/Lum120 peak area ratio, 0.4 um insert” value is on record as 2.45. For the same substance, under setting [6], the “Abl 120/Lum120 peak area ratio, 3.0 um insert” value was 1.21. Moreover, the “Lum 120: Area” value worked out at 2.17E+05 under setting [3] and 2.44E+05 under setting [4].
Regarding “MFDSSNYHGQDLLFKDATVR [tryptic peptide fragment of human p97]”, under setting [2], the “Ablum 120: Area” value is recorded as 0.00E+00. In addition, the “Lum 120: Area” value under setting [4] amounted to 0.00E+00.
On to “YYDYSGAFR (listed as Homo sapiens) [tryptic peptide fragment of human p97]”, for which the “Abl 120/Lum120 peak area ratio, 0.4 um insert” value came to 7.40.
As for “CGNMSEAFR (listed as Homo sapiens) [tryptic peptide fragment of human p97]”, the “Ablum 120: Area” value is given as 2.53E+07 and the “Lum 120: Area” value is listed as 0.00E+00.
For “HSTVLENTDGK (listed as Homo sapiens) [tryptic peptide fragment of human p97]”, the “Ablum 120: Area” value was determined as 0.00E+00.
Regarding VPAHAWVR, the “Abl 120/Lum120 peak area ratio, 0.4 um insert” value came out at 3.32 and the “Abl 120/Lum120 peak area ratio, 3.0 um insert” value was 3.56.
Consider “AVPVGEKTTYR (listed as Homo sapiens) [tryptic peptide fragment of human p97]”, for which the “Ablum 120: Area” value is given as 0.00E+00 and the “Lum 120: Area” value was found to be 0.00E+00.
In the case of “RSSHVTIDTLK (listed as Homo sapiens) [tryptic peptide fragment of human p97]”, the “Abl 120/Lum120 peak area ratio, 0.4 um insert” value is recorded as 2.06 and the “Abl 120/Lum120 peak area ratio, 3.0 um insert” value was 1.23.
Regarding “DLLFKDSTSELVPIATQTYEAWLGHEYLHAMK [tryptic peptide fragment of human p97]”, the “Ablum 120: Area” value under setting [2] amounted to 0.00E+00. The “Lum 120: Area” value under setting [4] is on record as 3.76E+07.
Take “IQAEQVDAVTLSGEDIYTAGK [tryptic peptide fragment of human p97]”: the “Ablum 120: Area” value runs as follows: under setting [1], 0.00E+00; under setting [2], 0.00E+00. Also, the “Lum 120: Area” value under setting [3] was 3.48E+06.
Take “EHGLKPVVGEVYDQEVGTSYYAVAVVRR [tryptic peptide fragment of human p97]”: the “Ablum 120: Area” value reads like this: under setting [1], 1.70E+07; under setting [2], 2.62E+07. The “Lum 120: Area” value by setting is: under setting [3], 0.00E+00; under setting [4], 0.00E+00.
As to “AQDLFGDDHNKNGFK [tryptic peptide fragment of human p97]”, the “Abl 120/Lum120 peak area ratio, 0.4 um insert” value under setting [5] is 5.45. Moreover, the “Abl 120/Lum120 peak area ratio, 3.0 um insert” value under setting [6] stood at 1.68.
As to “CVGNSQERYYGYR (listed as Homo sapiens) [tryptic peptide fragment of human p97]”, the “Lum 120: Area” value stood at 0.00E+00.
